In patent US11566007B2, “Ras inhibitors” (Revolution Medicines, Inc., priority 2019, dated 2023):

How the values were obtained:
NCI-H358 (K-Ras G12C) = test: CellTiter-Glo cell viability assay, NCI-H358; assay type: cell-based, human; conditions: Homo sapiens, NCI-H358, 120 h, NCI-H358, 5-day treatment; class symbols; read-out: Additional H358 Cell Viability assay data (K-Ras G12C, IC50)
In short: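 Viability measured by CellTiter-Glo luminescence on day 5 following direct addition of compound to plated cells. Values expressed as percent of mean DMSO signal; curves fitted with a four-parameter logistic model.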

KRAS G13D = KRAS G13D (Homo sapiens (Human), UniProt P01116+P62937, G13D); test: Ras-Raf (BRAF RBD) disruption / FRET / MOA assay, KRAS G13D; assay type: biochemical; conditions: read-out: IC50* KRAS G13D FRET data
In short: (§1)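 Compound-driven ternary complex of nucleotide-loaded Ras with cyclophilin A, disrupting BRAF RBD binding. 10-point 3-fold dilution from 30 μM final, 3 h at 25° C, then anti-His Eu-W1024 (10 nM) and anti-GST allophycocyanin (50 nM) for 1.5 h. IC50 from TR-FRET ratio decrease versus DMSO.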

[1] = test system: NCI-H358 cells (K-Ras G12C); test: Potency assay: pERK in NCI-H358 cells; assay type: cell-based, human; conditions: Homo sapiens, NCI-H358; H358 KRAS G12C; read-out: pERK EC50
In short: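 4 h cpd, 37 °C; 10-pt 3-fold series, 10 mM DMSO top stock, duplicates. Readout pERK: AlphaLISA SureFire Ultra or In-Cell Western (IR-800CW secondary, DRAQ5 DNA stain). IC50, 4-PL fit vs log conc.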

K-Ras G13C = K-Ras G13C (Homo sapiens (Human), UniProt P01116+P62937, G13C); test: Ras-Raf (BRAF RBD) disruption / FRET / MOA assay, KRAS G13C; assay type: biochemical; conditions: KRAS G13C; Ras-Raf disruption/FRET/MOA assay; read-out: IC50* KRAS G13C FRET data
In short: as §1

K-Ras G12C = K-Ras G12C (Homo sapiens (Human), UniProt P01116+P62937, G12C); test: Ras-Raf (BRAF RBD) disruption / FRET / MOA assay, KRAS G12C; assay type: biochemical; conditions: KRAS G12C; Ras-Raf disruption/FRET/MOA assay; read-out: IC50* KRAS G12C FRET data
In short: as §1

KRAS G12D = KRAS G12D (Homo sapiens (Human), UniProt P01116+P62937, G12D); test: Ras-Raf (BRAF RBD) disruption / FRET / MOA assay, KRAS G12D; assay type: biochemical; conditions: Ras-Raf disruption/FRET/MOA assay; class symbols; read-out: KRAS G12D FRET data IC50
In short: as §1

KRAS WT = KRAS WT (Homo sapiens (Human), UniProt P01116+P62937); test: Ras-Raf (BRAF RBD) disruption / FRET / MOA assay, KRAS WT; assay type: biochemical; conditions: read-out: IC50* KRAS WT FRET data
In short: as §1

KRAS G12S = KRAS G12S (Homo sapiens (Human), UniProt P01116+P62937, G12S); test: Ras-Raf (BRAF RBD) disruption / FRET / MOA assay, KRAS G12S; assay type: biochemical; conditions: Ras-Raf disruption/FRET/MOA assay; class symbols; read-out: KRAS G12S FRET data IC50
In short: as §1

NRAS G12C = NRAS G12C (Homo sapiens (Human), UniProt P01111+P62937, G12C); test: Ras-Raf (BRAF RBD) disruption / FRET / MOA assay, NRAS G12C; assay type: biochemical; conditions: read-out: IC50* NRAS G12C FRET data
In short: as §1

KRAS G12V = KRAS G12V (Homo sapiens (Human), UniProt P01116+P62937, G12V); test: Ras-Raf (BRAF RBD) disruption / FRET / MOA assay, KRAS G12V; assay type: biochemical; conditions: read-out: IC50* KRAS G12V FRET data
In short: as §1

Sequence of K-Ras G13C (P01116-2 other isoform, or with tags, fused parts or gaps G13C): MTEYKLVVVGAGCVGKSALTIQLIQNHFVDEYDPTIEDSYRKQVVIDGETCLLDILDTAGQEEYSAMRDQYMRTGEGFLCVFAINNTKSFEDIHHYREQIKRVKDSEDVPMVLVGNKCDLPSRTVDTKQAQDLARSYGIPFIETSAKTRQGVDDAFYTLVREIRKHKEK
Sequence of K-Ras G13C (P62937 whole entry): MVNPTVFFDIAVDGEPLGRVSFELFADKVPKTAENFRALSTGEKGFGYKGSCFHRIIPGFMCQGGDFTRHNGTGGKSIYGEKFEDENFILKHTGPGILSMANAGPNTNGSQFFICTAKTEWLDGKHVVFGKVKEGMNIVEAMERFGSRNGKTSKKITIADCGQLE
Sequence of KRAS WT (P01116-2 other isoform, or with tags, fused parts or gaps): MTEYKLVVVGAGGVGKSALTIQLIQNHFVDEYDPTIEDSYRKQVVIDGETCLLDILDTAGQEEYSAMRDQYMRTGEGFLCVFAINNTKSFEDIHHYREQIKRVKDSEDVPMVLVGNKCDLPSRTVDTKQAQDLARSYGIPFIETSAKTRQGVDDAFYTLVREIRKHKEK
Sequence of KRAS WT (P62937 whole entry): as the sequence (P62937 whole entry) above
Sequence of NRAS G12C (P01111 whole entry G12C): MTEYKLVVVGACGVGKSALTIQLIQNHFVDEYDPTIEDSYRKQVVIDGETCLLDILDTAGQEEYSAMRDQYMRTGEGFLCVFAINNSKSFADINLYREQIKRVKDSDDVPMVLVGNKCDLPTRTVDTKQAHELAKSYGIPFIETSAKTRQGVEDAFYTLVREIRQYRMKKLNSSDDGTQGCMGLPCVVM
Sequence of NRAS G12C (P62937 whole entry): as the sequence (P62937 whole entry) above
Sequence of K-Ras G12C (P01116-2 other isoform, or with tags, fused parts or gaps G12C): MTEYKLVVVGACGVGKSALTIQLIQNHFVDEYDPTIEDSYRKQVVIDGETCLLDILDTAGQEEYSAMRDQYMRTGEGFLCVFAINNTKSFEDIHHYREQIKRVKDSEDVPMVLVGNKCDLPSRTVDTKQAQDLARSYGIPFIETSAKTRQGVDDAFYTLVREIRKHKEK
Sequence of K-Ras G12C (P62937 whole entry): as the sequence (P62937 whole entry) above
Sequence of KRAS G13D (P01116-2 other isoform, or with tags, fused parts or gaps G13D): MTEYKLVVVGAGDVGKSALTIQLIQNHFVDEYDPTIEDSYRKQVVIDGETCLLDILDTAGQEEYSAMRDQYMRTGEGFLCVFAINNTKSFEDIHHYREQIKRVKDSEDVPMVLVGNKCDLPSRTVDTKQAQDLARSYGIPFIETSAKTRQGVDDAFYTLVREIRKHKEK
Sequence of KRAS G13D (P62937 whole entry): as the sequence (P62937 whole entry) above
Sequence of KRAS G12V (P01116-2 other isoform, or with tags, fused parts or gaps G12V): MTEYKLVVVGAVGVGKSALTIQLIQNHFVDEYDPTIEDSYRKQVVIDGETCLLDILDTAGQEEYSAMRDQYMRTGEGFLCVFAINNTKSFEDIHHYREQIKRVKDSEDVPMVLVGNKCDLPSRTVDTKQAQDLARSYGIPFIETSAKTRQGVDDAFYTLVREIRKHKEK
Sequence of KRAS G12V (P62937 whole entry): as the sequence (P62937 whole entry) above
Sequence of KRAS G12D (P01116-2 other isoform, or with tags, fused parts or gaps G12D): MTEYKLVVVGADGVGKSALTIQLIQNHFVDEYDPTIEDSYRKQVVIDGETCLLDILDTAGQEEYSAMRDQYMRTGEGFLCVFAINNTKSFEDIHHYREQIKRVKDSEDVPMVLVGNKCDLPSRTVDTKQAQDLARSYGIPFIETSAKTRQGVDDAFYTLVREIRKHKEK
Sequence of KRAS G12D (P62937 whole entry): as the sequence (P62937 whole entry) above
Sequence of KRAS G12S (P01116-2 other isoform, or with tags, fused parts or gaps G12S): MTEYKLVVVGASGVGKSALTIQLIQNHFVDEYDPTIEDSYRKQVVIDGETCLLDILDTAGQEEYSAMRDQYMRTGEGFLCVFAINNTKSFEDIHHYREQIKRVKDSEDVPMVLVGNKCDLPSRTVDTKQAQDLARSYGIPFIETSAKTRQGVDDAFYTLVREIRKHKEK
Sequence of KRAS G12S (P62937 whole entry): as the sequence (P62937 whole entry) above

SMILES	IC50 (NCI-H358 (K-Ras G12C)) [nM]	IC50 (KRAS G13D) [nM]	EC50 [1] [nM]	IC50 (K-Ras G13C) [nM]	IC50 (K-Ras G12C) [nM]	IC50 (KRAS G12D) [nM]	IC50 (KRAS WT) [nM]	IC50 (KRAS G12S) [nM]	IC50 (NRAS G12C) [nM]	IC50 (KRAS G12V) [nM]
C=CC(=O)N1C[C@@H]2[C@H](C1)[C@@H]2C(=O)N(C)[C@H](C(=O)N[C@H]1Cc2cc(O)cc(c2)-c2ccc3c(c2)c(c(-c2cccnc2[C@H](C)OC)n3CC)CC(C)(C)COC(=O)[C@@H]2CCCN(N2)C1=O)C(C)C (atropisomer, axis not shown) [Example A319]	10 to 100	10 to 100	< 5000	10 to 100	10 to 100	10 to 100	10 to 100	10 to 100	10 to 100	10 to 100
C=CC(=O)N1CC[C@H](C(=O)N(C)[C@H](C(=O)N[C@H]2Cc3cccc(c3)-c3ccc4c(c3)c(c(-c3cccnc3[C@H](C)OC)n4CC)CC(C)(C)COC(=O)[C@@H]3CCCN(N3)C2=O)C2CC2)C1 (atropisomer, axis not shown) [Example A320]	10 to 100	> 10000	< 5000	1000 to 10000	100 to 1000	> 10000	1000 to 10000	1000 to 10000	100 to 1000	1000 to 10000
C=CC(=O)N1CC[C@H](C(=O)N(C)[C@H](C(=O)N[C@H]2Cc3cccc(c3)-c3ccc4c(c3)c(c(-c3cccnc3[C@H](C)OC)n4CC)CC(C)(C)COC(=O)[C@@H]3CCCN(N3)C2=O)C2CCC2)C1 (atropisomer, axis not shown) [Example A321]	10 to 100	1000 to 10000	< 5000	1000 to 10000	100 to 1000	> 10000	1000 to 10000	1000 to 10000	100 to 1000	1000 to 10000
CCn1c(-c2cccnc2[C@H](C)OC)c2c3cc(ccc31)-c1csc(n1)C[C@H](NC(=O)[C@H](C(C)C)N1CCC3(CCN(C(=O)C#CC(C)(C)N(C)C)CC3)C1=O)C(=O)N1CCC[C@H](N1)C(=O)OCC(C)(C)C2 (atropisomer, axis not shown) [Example A322]	< 10	> 10000	< 5000	100 to 1000	< 10	> 10000	> 10000	> 10000	10 to 100	> 10000
CCn1c(-c2cccnc2[C@H](C)OC)c2c3cc(ccc31)-c1csc(n1)C[C@H](NC(=O)[C@H](C(C)C)N1CCC3(CN(C(=O)C#CC(C)(C)N(C)C)C3)C1=O)C(=O)N1CCC[C@H](N1)C(=O)OCC(C)(C)C2 (atropisomer, axis not shown) [Example A323]	< 10	> 10000	< 5000	100 to 1000	< 10	> 10000	> 10000	> 10000	< 10	> 10000
CCn1c(-c2cccnc2[C@H](C)OC)c2c3cc(ccc31)-c1cccc(c1)C[C@H](NC(=O)[C@H](C(C)C)N1CCC3(CN(C(=O)C#CC(C)(C)N(C)C)C3)C1=O)C(=O)N1CCC[C@H](N1)C(=O)OCC(C)(C)C2 (atropisomer, axis not shown) [Example A324]	< 10	> 10000	< 5000	100 to 1000	< 10	> 10000	1000 to 10000	1000 to 10000	< 10	1000 to 10000
CCn1c(-c2cccnc2[C@H](C)OC)c2c3cc(ccc31)-c1cccc(c1)C[C@H](NC(=O)[C@H](C(C)C)N(C)C(=O)[C@H]1CCN(C(=O)C#CC(C)(C)N3CCCC3)C1)C(=O)N1CCC[C@H](N1)C(=O)OCC(C)(C)C2 (atropisomer, axis not shown) [Example A326]	< 10	1000 to 10000	< 5000	1000 to 10000	< 10	1000 to 10000	1000 to 10000	1000 to 10000	< 10	1000 to 10000
C=CC(=O)N1CC[C@H](C(=O)N(C)[C@H](C(=O)N[C@H]2Cc3cccc(c3F)-c3ccc4c(c3)c(c(-c3cccnc3[C@H](C)OC)n4CC)CC(C)(C)COC(=O)[C@@H]3CCCN(N3)C2=O)C(C)C)C1 (atropisomer, axis not shown) [Example A327]	10 to 100	> 10000	< 5000	1000 to 10000	100 to 1000	> 10000	> 10000	1000 to 10000	100 to 1000	> 10000
C=CC(=O)N1CCN(C(=O)N(C)[C@H](C(=O)N[C@H]2Cc3nc(cs3)-c3ccc4c(c3)c(c(-c3cccnc3[C@H](C)OC)n4CC)CC(C)(C)COC(=O)[C@@H]3CCCN(N3)C2=O)C(C)C)C2(CC2)C1 (atropisomer, axis not shown) [Example A395]	< 10	100 to 1000	< 5000	100 to 1000	100 to 1000	1000 to 10000	100 to 1000	100 to 1000	100 to 1000	100 to 1000
C=CC(=O)N1C[C@@H](F)[C@](F)(C(=O)N(C)[C@H](C(=O)N[C@H]2Cc3cccc(c3)-c3ccc4c(c3)c(c(-c3cccnc3[C@H](C)OC)n4CC)CC(C)(C)COC(=O)[C@@H]3CCCN(N3)C2=O)C(C)C)C1 (atropisomer, axis not shown) [Example A396]	< 10	1000 to 10000	< 5000	10 to 100	10 to 100	1000 to 10000	1000 to 10000	1000 to 10000	10 to 100	1000 to 10000
C=CC(=O)N1C[C@H](F)[C@](F)(C(=O)N(C)[C@H](C(=O)N[C@H]2Cc3cccc(c3)-c3ccc4c(c3)c(c(-c3cccnc3[C@H](C)OC)n4CC)CC(C)(C)COC(=O)[C@@H]3CCCN(N3)C2=O)C(C)C)C1 (atropisomer, axis not shown) [Example A397]	< 10	100 to 1000	< 5000	10 to 100	10 to 100	1000 to 10000	100 to 1000	100 to 1000	10 to 100	100 to 1000
C=CC(=O)N1CC[C@H](C(=O)N(CC)[C@H](C(=O)N[C@H]2Cc3cccc(c3)-c3ccc4c(c3)c(c(-c3cccnc3[C@H](C)OC)n4CC)CC(C)(C)COC(=O)[C@@H]3CCCN(N3)C2=O)C(C)C)C1 (atropisomer, axis not shown) [Example A399]	10 to 100	1000 to 10000	< 5000	1000 to 10000	100 to 1000	> 10000	1000 to 10000	1000 to 10000	100 to 1000	1000 to 10000
